Measurements from PMC6923765, “Structural Design, Synthesis, and Preliminary Biological Evaluation of Novel Dihomooxacalix[4]arene-Based Anti-tumor Agents” (Frontiers in Chemistry, 2019).

Key:
[1] = system: HepG2 cells (human hepatocellular carcinoma cells); assay: SRB cytotoxicity assay, HepG2 cells; format: cell-based; conditions: 72 h, SRB; for IC50: read-out: IC50 (μM) HepG2
Protocol: (§1) A549 cells (human lung carcinoma cells), MCF-7 cells (human breast cancer cells), HeLa cells (human cervical cancer cells), HepG2 cells (human hepatocellular carcinoma cells), and HUVEC cells (human umbilical vein endothelial cells) were kindly provided by WeiFang Caleb Pharmaceuticals, Inc. A549 cells were cultured in Ham's F12K medium containing 10% fetal bovine serum, 2 mM L-glutamine, and 1.5 g/L sodium bicarbonate; MCF-7 cells were cultured on cell culture flask using RPMI 1640 medium with 2 mM L-glutamine adjusted to contain 1.5 g/L sodium bicarbonate, 4.5 g/L glucose, 10 mM HEPES, 1.0 mM sodium pyruvate, and 10% fetal bovine serum. Hela cells were cultured on Cell culture flask using 2 mM L-glutamine adjusted to contain 1.5 g/L sodium bicarbonate, 4.5 g/L glucose, 10 mM HEPES, and 1.0 mM sodium pyruvate in RPMI 1640 medium supplemented with 0.5 mg/ml G418 and 10% fetal bovine serum. HepG2 cells were cultured in minimum essential medium (Eagle) with 2 mM L-glutamine, Earle's BSS, 1.5 g/L sodium bicarbonate, 0.1 mM non-essential amino acids, 1.0 mM sodium pyruvate, and 10% fetal bovine serum. HUVEC cells were cultured in M199 medium containing 2 mM L-glutamine adjusted to contain 1.5 g/L sodium bicarbonate, 4.5 g/L glucose, 10 mM HEPES, 1.0 mM sodium pyruvate, ECGS, and 10% fetal bovine serum. All cells were cultured at 37°C in 5% CO2.
(§2) The cell proliferation of adherent cells was determined by sulforhodamine B assay (SRB) (Quan et al., [2009]; Li et al., [2017]). All cells were cultured in culture medium containing 10% fetal bovine serum and have been in the logarithmic growth phase. All cell types were seeded in a 96-well culture plate at a concentration of 1–5 × 10^4 cells per well at 37°C in a 5% CO2 incubator for 24 h. The cells were then exposed to seven drug concentrations of dihomooxacalix[4]arene derivatives for 72 h with each concentration located in three wells. Then, the cells were fixed with trichloroacetic acid (TCA). After washing, SRB working solution was added to the cells to […]. SRB combined with protein was dissolved in Tris base. OD values were measured for each well with a SPECTRA max 190 Cell microplate reader under 540 nm wavelength. According to the OD value, the cell growth inhibition rate was calculated.

[2] = system: HUVEC cells (human umbilical vein endothelial cells); assay: SRB cytotoxicity assay, HUVEC normal cells; format: cell-based; conditions: Homo sapiens, HUVEC, 72 h, 10 μM, SRB; toxicity to normal cells
Protocol: as §1, §2

[3] = system: A549 cells (human lung carcinoma cells); assay: SRB cytotoxicity assay, A549 cells; format: cell-based; conditions: 72 h, SRB; for IC50: read-out: IC50 (μM) A549
Protocol: as §1, §2

[4] = system: HeLa cells (human cervical cancer cells); assay: SRB cytotoxicity assay, HeLa cells; format: cell-based; conditions: 72 h, SRB; for IC50: read-out: IC50 (μM) HeLa
Protocol: as §1, §2

[5] = system: MCF-7 cells (human breast cancer cells); assay: SRB cytotoxicity assay, MCF-7 cells; format: cell-based; conditions: SRB; for inhibition at 10 µM: MCF7, 10 μM, 72 h; for IC50: MCF7, 72 h, read-out: IC50 (μM) MCF-7
Protocol: as §1, §2

MCF-7 cells [6] = assay: Flow cytometry for cell apoptosis analysis (annexin V-FITC/PI); format: cell-based, human; conditions: 48 h, non-treated 14.50 ± 0.68%
Protocol: MCF-7 cells (5 × 10^5 cells/ml) were seeded in six-well plates and treated with compounds at different concentrations for 48 h. The cells were then harvested by trypsinization and washed twice with cold PBS. After centrifugation and removal of the supernatants, cells were resuspended in 400 μl of 1 × binding buffer, which was then added to 5 μl of annexin V-FITC and incubated at room temperature for 15 min. After adding 10 μl of PI, the cells were incubated at room temperature for another 15 min in the dark. The stained cells were analyzed by a flow cytometer (BD Accuri C6).

MCF-7 cells [7] = assay: Flow cytometry for cell cycle analysis (PI); format: cell-based, human; conditions: 3 μM, 48 h; for percentage of cells in G0/G1 phase: non-treated 61.36 ± 3.65%
Protocol: For flow cytometric analysis of DNA content, MCF-7 cells in exponential growth were treated with compound for 48 h. The cells treated with compound were collected, washed twice with PBS, and then fixed with 75% alcohol overnight. Then, the cells were washed with PBS and resuspended in 100 μl of PBS, 200 mg/ml RNase was added for 30 min to eliminate the interference of RNA, and 20 ml/L propidium iodide (PI; Sigma) was added for 30 min. Then, the cells were washed, and the DNA content was detected by a flow cytometer (BD Accuri C6).

[8] = system: A549, MCF-7, HeLa and HepG2 cells; assay: SRB cytotoxicity assay, four tumor cell types taken together; format: cell-based; conditions: Homo sapiens, 72 h, range over A549, MCF-7, HeLa, read-out: single concentration inhibition on the four tumor cells
Protocol: as §1, with “HepG2 cells were cultured in minimum essential medium (Eagle) with 2 mM L-glutamine, Earle's BSS, 1.5 g/L sodium bicarbonate, 0.1 mM non-essential amino acids, 1.0 mM sodium pyruvate, and 10% fetal bovine serum. HUVEC cells were cultured in M199 medium containing 2 mM L-glutamine adjusted to contain 1.5 g/L sodium bicarbonate, 4.5 g/L glucose, 10 mM HEPES, 1.0 mM sodium pyruvate, ECGS, and 10% fetal bovine serum. All cells were cultured at 37°C in 5% CO2.” left out
The cell proliferation of adherent cells was determined by sulforhodamine B assay (SRB) (Quan et al., [2009]; Li et al., [2017]). […] OD values were measured for each well with a SPECTRA max 190 Cell microplate reader under 540 nm wavelength. According to the OD value, the cell growth inhibition rate was calculated.

SMILES | melting point [°C] | inhibition at 10 µM [1] [%] | inhibition at 10 µM [2] [%] | inhibition at 10 µM [3] [%] | inhibition at 10 µM [4] [%] | inhibition at 10 µM [5] [%] | IC50 [1] [µM] | IC50 [3] [µM] | IC50 [4] [µM] | IC50 [5] [µM] | apoptotic rate (MCF-7 cells [6]; 3 μM) [%] | apoptotic rate (MCF-7 cells [6]; 10 μM) [%] | percentage of cells in G0/G1 phase (MCF-7 cells [7]) [%] | apoptotic rate (MCF-7 cells [6]; 1 μM) [%] | percentage of cells in G2/M phase (MCF-7 cells [7]; non-treated 10.06 ± 0.91) [%] | percentage of cells in S phase (MCF-7 cells [7]; non-treated 24.69 ± 6.30%) [%] | inhibition at 10 µM [8] [%]
COc1ccc(CCNC(=O)COc2c3cc(C(C)(C)C)cc2Cc2cc(C(C)(C)C)cc(c2O)Cc2cc(C(C)(C)C)cc(c2OCC(=O)NCCc2ccc(OC)c(OC)c2)Cc2cc(C(C)(C)C)cc(c2O)COC3)cc1OC [Compound 4P, 7,13,19,25-tetra-tert-butyl-28,30-di-hydroxy-27,29-di-(N-(3,4-dimethoxyphenethyl)-aminocarbonylmethoxyl)-2,3-dihomo-3-oxacalix [4]arene] | 117.4 to 120.1 | 11 | 0 | 22 | 37 | 0 |  |  |  |  |  |  |  |  |  |  | 
CC(C)(C)c1cc2c(O)c(c1)Cc1cc(C(C)(C)C)cc3c1OCC(=O)NCCCNC(=O)COc1c(cc(C(C)(C)C)cc1Cc1cc(C(C)(C)C)cc(c1O)C3)COC2 [Compound 4F] | 189.5 to 191.4 | 9 | 42 | 63 | 59 | 46 |  | 2.9 ± 0.7 |  |  |  |  |  |  |  |  | 
CC(C)(C)c1cc2c(O)c(c1)Cc1cc(C(C)(C)C)cc(c1OCC(=O)NC1CCCC1)Cc1cc(C(C)(C)C)cc(c1O)Cc1cc(C(C)(C)C)cc(c1OCC(=O)NC1CCCC1)COC2 [Compound 4M, 7,13,19,25-tetra-tert-butyl-28,30-di-hydroxy-27,29-di-(N-clopentyl-aminocarbonylmethoxyl)-2,3-dihomo-3-oxacalix[4]arene] | 145.9 to 148.2 | 12 | 14 | 66 | 52 | 29 |  | 10.1 ± 1.8 |  |  |  |  |  |  |  |  | 
CC(C)(C)c1cc2c(O)c(c1)Cc1cc(C(C)(C)C)cc3c1OCC(=O)NCCNC(=O)COc1c(cc(C(C)(C)C)cc1Cc1cc(C(C)(C)C)cc(c1O)C3)COC2 [Compound 4E] | 204.8 to 206.3 | 21 | 26 | 60 | 46 | 50 |  | 12.4 ± 2.2 |  |  |  |  |  |  |  |  | 

Second part, led by results:

melting point [°C] | SMILES | inhibition at 10 µM [1] [%] | inhibition at 10 µM [2] [%] | inhibition at 10 µM [3] [%] | inhibition at 10 µM [4] [%] | inhibition at 10 µM [5] [%] | IC50 [1] [µM] | IC50 [3] [µM] | IC50 [4] [µM] | IC50 [5] [µM] | apoptotic rate (MCF-7 cells [6]; 3 μM) [%] | apoptotic rate (MCF-7 cells [6]; 10 μM) [%] | percentage of cells in G0/G1 phase (MCF-7 cells [7]) [%] | apoptotic rate (MCF-7 cells [6]; 1 μM) [%] | percentage of cells in G2/M phase (MCF-7 cells [7]; non-treated 10.06 ± 0.91) [%] | percentage of cells in S phase (MCF-7 cells [7]; non-treated 24.69 ± 6.30%) [%] | inhibition at 10 µM [8] [%]
210.7 to 212.5 | CC(C)(C)c1cc2c(O)c(c1)Cc1cc(C(C)(C)C)cc(c1OCC(=O)N(CCO)CCO)Cc1cc(C(C)(C)C)cc(c1O)Cc1cc(C(C)(C)C)cc(c1OCC(=O)N(CCO)CCO)COC2 [Compound 4B, 7,13,19,25-tetra-tert-butyl-28,30-di-hydroxy-27,29-di-(N,N-bis(2-hydroxyethyl)-aminocarbonylmethoxyl)-2,3-dihomo−3-oxacalix[4]arene] | 39 | 23 | 66 | 100 | 73 | 3.8 ± 0.3 | 3.9 ± 0.5 | 1.1 ± 0.5 | 4.4 ± 0.7 |  |  |  |  |  |  | 
119.5 to 120.8 | CCCCNC(=O)COc1c2cc(C(C)(C)C)cc1Cc1cc(C(C)(C)C)cc(c1O)Cc1cc(C(C)(C)C)cc(c1OCC(=O)NCCCC)Cc1cc(C(C)(C)C)cc(c1O)COC2 [Compound 4K, 7,13,19,25-tetra-tert-butyl-28,30-di-hydroxy-27,29-di-(N-butyl-aminocarbonylmethoxyl)-2,3-dihomo-3-oxacalix[4] arene] | 6 | 1 | 65 | 42 | 41 |  | 4.5 ± 1.4 |  |  |  |  |  |  |  |  | 
123.3 to 125.9 | CC(C)(C)c1cc2c(O)c(c1)Cc1cc(C(C)(C)C)cc(c1OCC(=O)NCCCCCCN)Cc1cc(C(C)(C)C)cc(c1O)Cc1cc(C(C)(C)C)cc(c1OCC(=O)NCCCCCCN)COC2 [Compound 4D, 7,13,19,25-tetra-tert-butyl-28,30-di-hydroxy-27,29-di-(N-(6-aminohexyl)-aminocarbonylmethoxyl)-2,3-dihomo-3-oxa calix[4] arene] | 72 | 90 | 99 | 100 | 99 | 2.6 ± 0.2 | 0.7 ± 0.1 | 1.9 ± 0.1 | 1.8 ± 0.7 | 33.55 ± 0.78 | 61.15 ± 2.76 | 73.56 ± 3.95 |  |  |  | 
139.7 to 142.3 | CC(C)(C)c1cc2c(O)c(c1)Cc1cc(C(C)(C)C)cc(c1OCC(=O)NCCO)Cc1cc(C(C)(C)C)cc(c1O)Cc1cc(C(C)(C)C)cc(c1OCC(=O)NCCO)COC2 [Compound 4A, 7,13,19,25-tetra-tert-butyl-28,30-di-hydroxy-27,29-di-(N-(2-hydroxyethyl)-aminocarbonylmethoxyl)-2,3-dihomo-3-oxacalix[4]arene] | 86 | 41 | 100 | 100 | 100 | 2.7 ± 0.4 | 2 ± 0.5 | 0.8 ± 0.2 | 1 ± 0.1 | 15.40 ± 0.13 | 40.74 ± 0.38 | 71.39 ± 11.21 | 19.63 ± 0.11 | 1.87 ± 2.45 | 20.68 ± 13.12 | 86 to 100
